ChEMBL document CHEMBL1201862, “PubChem BioAssay data set” (2004)
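Results reflect a 48-hour exposure of cells in 96-well plates to compound at five concentrations. GI50 is the concentration that inhibits growth by half.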 Activity calls are given as the source filed them. Cut-off read from the data, not from the text of the source: active = GI50 up to about 1.1 µM and inactive = higher.

Tests used:
Test in all cases: NCI-60 cell line screen, 48 h
SR = tested on: SR
MDA-MB-231 = tested on: MDA-MB-231
MDA-N = tested on: MDA-N
EKVX = tested on: EKVX
SW-620 = tested on: SW-620
HOP-92 = tested on: HOP-92
SK-OV-3 = tested on: SK-OV-3
OVCAR-3 = tested on: OVCAR-3
UACC-62 = tested on: UACC-62
MDA-MB-435 = tested on: MDA-MB-435
SK-MEL-2 = tested on: SK-MEL-2
SK-MEL-5 = tested on: SK-MEL-5
SN12C = tested on: SN12C
SF-295 = tested on: SF-295
SNB-19 = tested on: SNB-19
MOLT-4 = tested on: MOLT-4
COLO 205 = tested on: COLO 205
MCF7 = tested on: MCF7
CCRF-CEM = tested on: CCRF-CEM
NCI-H23 = tested on: NCI-H23

Row | SMILES | GI50 (SR) | GI50 (MDA-MB-231) | GI50 (MDA-N) | GI50 (EKVX) | GI50 (SW-620) | GI50 (HOP-92) | GI50 (SK-OV-3) | GI50 (OVCAR-3) | GI50 (UACC-62) | GI50 (MDA-MB-435) | GI50 (SK-MEL-2) | GI50 (SK-MEL-5) | GI50 (SN12C) | GI50 (SF-295) | GI50 (SNB-19) | GI50 (MOLT-4) | GI50 (COLO 205) | GI50 (MCF7) | GI50 (CCRF-CEM) | GI50 (NCI-H23)
1 | COCCOC1=CC(=O)c2c(O)ccc(O)c2C1=O | 5.01 µM (inactive) | 1.75 µM (inactive) | 0.186 µM (active) | 2.14 µM (inactive) | 0.569 µM (active) | 2.13 µM (inactive) | 8.41 µM (inactive) | 0.662 µM (active) | 1.85 µM (inactive) | 0.179 µM (active) | 1.27 µM (inactive) | 0.163 µM (active) | 1.63 µM (inactive) | 1.69 µM (inactive) | 2.3 µM (inactive) | 2.43 µM (inactive) | 0.284 µM (active) | 0.275 µM (active) | 4.3 µM (inactive) | 1.12 µM (active)
2 | CCCCCCCCCCCCOC1C(COCCN2CCCC2)OC2OC(C)(C)OC21 (configuration not stated) | 1.14 µM (inactive) | 1.5 µM (inactive) | 1.41 µM (inactive) | 3.18 µM (inactive) | – | 1.39 µM (inactive) | 1.63 µM (inactive) | 1.62 µM (inactive) | 1.91 µM (inactive) | 1.76 µM (inactive) | 1.71 µM (inactive) | 1.6 µM (inactive) | 1.82 µM (inactive) | 1.86 µM (inactive) | 2.94 µM (inactive) | 1.92 µM (inactive) | 1.82 µM (inactive) | 1.71 µM (inactive) | 1.86 µM (inactive) | 1.72 µM (inactive)
3 | CCCCCC(O)C(O)CCC[C@H](O)[C@H]1CC[C@H]([C@H]2CC[C@H]([C@H](O)CCCCCCCCCCCCC3=C[C@H](C)OC3=O)O2)O1 (some centres not stated) | 4.15 µM (inactive) | 4.32 µM (inactive) | 2.83 µM (inactive) | 2.62 µM (inactive) | 3.44 µM (inactive) | 23.4 µM (inactive) | – | 2.47 µM (inactive) | 1.71 µM (inactive) | 1.5 µM (inactive) | 1.76 µM (inactive) | 1.22 µM (inactive) | 3.87 µM (inactive) | 1.97 µM (inactive) | 3.14 µM (inactive) | 2.32 µM (inactive) | 3.98 µM (inactive) | 1.9 µM (inactive) | 1.09 µM (active) | 1.37 µM (inactive)
4 | Cc1sc2nc3n(c(=O)c2c1C)N=C(c1ccc(Cl)cc1)CS3 | > 100 µM (inactive) | > 100 µM (inactive) | > 100 µM (inactive) | > 100 µM (inactive) | > 100 µM (inactive) | > 100 µM (inactive) | > 100 µM (inactive) | > 100 µM (inactive) | > 100 µM (inactive) | > 100 µM (inactive) | – | > 100 µM (inactive) | > 100 µM (inactive) | > 100 µM (inactive) | – | > 100 µM (inactive) | > 100 µM (inactive) | > 100 µM (inactive) | > 100 µM (inactive) | > 100 µM (inactive)
5 | Cc1ccc(S(=O)(=O)Nc2ccccc2C=O)cc1 | 18.2 µM (inactive) | 15.1 µM (inactive) | 15.7 µM (inactive) | 25 µM (inactive) | 17 µM (inactive) | 2.35 µM (inactive) | 26.8 µM (inactive) | 16.9 µM (inactive) | 12.5 µM (inactive) | 10.5 µM (inactive) | 11.9 µM (inactive) | 11.9 µM (inactive) | 16.1 µM (inactive) | 18.9 µM (inactive) | 21.5 µM (inactive) | 11.9 µM (inactive) | 16.9 µM (inactive) | 12.4 µM (inactive) | – | 14.7 µM (inactive)
6 | N#CC(C#N)/N=N/c1ccc(-c2nc3ccccc3o2)cc1 | 16.2 µM (inactive) | 17.8 µM (inactive) | 17.2 µM (inactive) | 11.7 µM (inactive) | 11.2 µM (inactive) | 6.81 µM (inactive) | 18.6 µM (inactive) | 4.19 µM (inactive) | 6.05 µM (inactive) | 16.5 µM (inactive) | 12.4 µM (inactive) | 2.05 µM (inactive) | 13.2 µM (inactive) | – | 24.7 µM (inactive) | 7.82 µM (inactive) | 11.7 µM (inactive) | 11.1 µM (inactive) | – | 10.1 µM (inactive)
7 | CC(C)(C)c1cc(C2=NNC(c3ccccc3)C2)cc(C(C)(C)C)c1O (configuration not stated) | 5.58 µM (inactive) | 14.2 µM (inactive) | 12.6 µM (inactive) | 16.1 µM (inactive) | 15.7 µM (inactive) | 14.9 µM (inactive) | 18.5 µM (inactive) | 3.88 µM (inactive) | 13.5 µM (inactive) | 12.8 µM (inactive) | 14.8 µM (inactive) | 11 µM (inactive) | 16.6 µM (inactive) | 16.5 µM (inactive) | 18 µM (inactive) | 16.6 µM (inactive) | 17.5 µM (inactive) | 13.8 µM (inactive) | – | 17.2 µM (inactive)
8 | NC(=O)NCCCC(NC(=O)OCCCCn1ccc(=O)[nH]c1=O)C(=O)O (configuration not stated) | > 100 µM (inactive) | > 100 µM (inactive) | > 100 µM (inactive) | > 100 µM (inactive) | > 100 µM (inactive) | > 100 µM (inactive) | > 100 µM (inactive) | > 100 µM (inactive) | > 100 µM (inactive) | > 100 µM (inactive) | > 100 µM (inactive) | – | > 100 µM (inactive) | > 100 µM (inactive) | > 100 µM (inactive) | > 100 µM (inactive) | > 100 µM (inactive) | > 100 µM (inactive) | > 100 µM (inactive) | > 100 µM (inactive)
9 | O=C1Nc2ccccc2S/C1=C\c1ccccc1C(F)(F)F | > 100 µM (inactive) | > 100 µM (inactive) | > 100 µM (inactive) | > 100 µM (inactive) | > 100 µM (inactive) | 5.38 µM (inactive) | 89.5 µM (inactive) | > 100 µM (inactive) | > 100 µM (inactive) | > 100 µM (inactive) | > 100 µM (inactive) | > 100 µM (inactive) | > 100 µM (inactive) | > 100 µM (inactive) | > 100 µM (inactive) | > 100 µM (inactive) | > 100 µM (inactive) | 98.6 µM (inactive) | 2.24 µM (inactive) | –
10 | C=CCOc1ccc2c(C)cc(=O)oc2c1C | 37.8 µM (inactive) | 32.2 µM (inactive) | 42 µM (inactive) | 27.4 µM (inactive) | 67 µM (inactive) | 54.3 µM (inactive) | – | > 100 µM (inactive) | 82.6 µM (inactive) | 44.2 µM (inactive) | > 100 µM (inactive) | 32.4 µM (inactive) | 98.4 µM (inactive) | 23.3 µM (inactive) | 61.4 µM (inactive) | 35.1 µM (inactive) | 44.3 µM (inactive) | 38.5 µM (inactive) | 45.4 µM (inactive) | > 100 µM (inactive)
11 | O=C1NC(S(=O)(=O)O)=NNC12c1ccccc1-c1ccccc12 | > 10 µM (inactive) | > 10 µM (inactive) | > 10 µM (inactive) | > 10 µM (inactive) | > 10 µM (inactive) | > 10 µM (inactive) | > 10 µM (inactive) | – | > 10 µM (inactive) | > 10 µM (inactive) | – | > 10 µM (inactive) | > 10 µM (inactive) | > 10 µM (inactive) | > 10 µM (inactive) | > 10 µM (inactive) | > 10 µM (inactive) | > 10 µM (inactive) | > 10 µM (inactive) | > 10 µM (inactive)
